Patent US9745288B2, “Compounds and methods for treating cancer by inhibiting the urokinase receptor” (Indiana University Research and Technology Corporation, priority 2011, dated 2017)
Like-named read-outs stand apart in the source and are kept apart here.

Key:
uPAR = target: T1, uPAR (Homo sapiens, UniProt Q03405); test: Fluorescence polarization assay, displacement of AE147-FAM peptide from uPAR; format: binding
T1 construct: human uPAR (suPAR, amino acids 1-283) was expressed in stably transfected Drosophila S2 cells; made in house; host or cells: Drosophila S2 cells
T1 sequence (Q03405 23-305): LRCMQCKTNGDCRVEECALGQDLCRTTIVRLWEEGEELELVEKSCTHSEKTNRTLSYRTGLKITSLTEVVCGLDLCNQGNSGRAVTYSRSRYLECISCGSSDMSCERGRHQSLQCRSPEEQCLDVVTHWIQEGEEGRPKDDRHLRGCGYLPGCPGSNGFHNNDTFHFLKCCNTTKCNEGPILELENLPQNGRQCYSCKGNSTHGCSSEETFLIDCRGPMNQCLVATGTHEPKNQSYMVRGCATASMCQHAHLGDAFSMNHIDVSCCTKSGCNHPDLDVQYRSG
Method: Fluorescence Polarization Assay. The fluorescence polarization assay used fluorescent AE147-FAM peptide. uPAR was titrated against the fluorescent AE147-FAM peptide and data were fit to a sigmoidal dose-dependent curve as the FP value increases to determine the Kd of binding using Sigmaplot (Systat Software Inc., CA). Inhibitor screens were carried out in triplicates using 500 nM uPAR, 100 nM AE147-FAM, and inhibitor concentrations ranging from 0.78 μM to 100 μM in 50 μL volumes in black BD Falcon 384-well microplate. […] Polarized fluorescence intensities were measured immediately following addition of inhibitors to the protein-peptide mix at room temperature on an EnVision® Multilabel Plate Readers (PerkinElmer) with excitation and emission wavelengths of 485 nm and 530 nm, respectively.
Cloning, Expression and Purification of uPAR. uPAR was successfully cloned, expressed and purified. From 1 L of culture, nearly 12 mg of protein was expressed, which will be sufficient to conduct the experiments disclosed herein. Briefly, a truncated, soluble form of human uPAR (suPAR, amino acids 1-283) was expressed in stably transfected Drosophila S2 cells using the Drosophila Expression System (Invitrogen). suPAR was obtained by a two-step purification process. The conditioned culture medium was filtered (0.45 μm) and loaded onto a DEAE Sephadex column equilibrated with 20 mM Tris (pH 7.4). The protein was eluted with a gradient of 0-1 M NaCl in 20 mM Tris (pH 7.4). suPAR containing fractions were then pooled, concentrated, and filtered prior to RP-HPLC using a semi-preparative (10×25 cm) C8 column. A 1 mL aliquot of the concentrated protein was loaded onto the column at initial gradient conditions of 95% eluent A and 5% eluent B, where eluent A was 0.1% TFA/100% H2O and eluent B was 70:30 acetonitrile/[…]. The protein elutes using a gradient of 5% eluent A to 95% eluent B over 46 minutes at a flow rate of 4 mL/min. Under these conditions, the protein eluted as a single sharp peak (tR=29 min). […] Surface plasmon resonance confirmed that the purified uPAR was capable of binding to uPA. The identity of the 60 kDa band was established by immunoblot (not shown).
The design of a fluorescent probe was guided by the three-dimensional structure of uPAR in complex with peptide AE147.^27 As this peptide binds at the same site that is occupied by the growth factor-like domain of uPA, it provides the basis for the development of a competition assay to assess binding to this site. Flurescein was introduced to the N-terminus of AE147.
All 210 compounds were screened at initial concentration of 50 μM for displacement of AE147-FAM peptide. Eleven compounds gave polarization readings that were five times that of the standard deviation of the control peptide (FIG. 1B). Secondary concentration-dependent study for these eleven compounds was performed.
The resulting inhibition curves were used to determine an inhibition constant, Ki, for each.

MDA-MB-231 cells = test: Invasion assay (Boyden chamber, Matrigel); format: cell-based, human; conditions: Homo sapiens
Method: Invasion and Migration Assays. These assays were performed using BD BioCoat Matrigel Invasion Chamber (Cat. 354480, BD Biosciences, Bedford, Mass.). The undersurface of the inserts was coated with 30 μg/mL of fibronectin (Sigma, F2006) in PBS at 4° C. overnight. The inserts were washed with PBS once. Then, 0.5 mL of serum-free medium was separately added to the upper and lower chambers to equilibrate the Matrigel invasion chambers at 37° C., 5% CO2 for 2 hours. After starvated with serumfree DMEM or 4 hours, subconfluent MDA-MB-231 cells were trypsinized and resuspended in 0.1% FBS DMEM. 5×10^4 cells in 500 μL of 0.1% FBS DMEM containing various compounds or 1.0% DMSO (as control) were added to the upper chambers. 500 μL of 10% FBS DMEM containing the same concentration of the same compound or DMSO were added to the lower chambers. We incubated the invasion chambers for 3 hours at 37° C., 5% CO2. Non-invaded cells were removed from the upper chamber with a cotton swab. The invaded cells were fixed with 100% methanol and then stained with Hematoxylin Stain Harris Modified Method (Fisher, SH30-500D). The filters were washed with water 3 times. Filters were air dried and the invaded cells were counted in ten randomly selected microscopic fields (×200 magnification). The experiment was performed in triplicate per group and shown by mean±SE.
Whether the two active compounds affected invasion, adhesion and migration in cell culture in a concentration-dependent study was tested (FIGS. 2A, 2B). For invasion, the Transwell (or Boyden) chamber assay was used.^28 The assay uses a chamber with two compartments that are separated by a microporous membrane known as Matrigel consisting of components of the ECM such as collagen, laminin and fibronectin.^28
Invasive tumor cells degrade the Matrigel and migrate through the membrane to the lower compartment. […] FIGS. 2A and 2B show the effect of representative presently disclosed compounds on MDA-MB-231 metastasis. Percent inhibition of invasion, migration, and adhesion of MDA-MB-231 by compounds that bind to uPAR.

hERG channel = target: T2, hERG channel (Homo sapiens, UniProt Q12809); test: hERG fluorescence polarization Predictor Assay; format: binding; design: dose or concentration left out as unconfirmed
T2 construct: purchased Invitrogen (Carlsbad, Calif.)
T2 sequence (Q12809 whole entry): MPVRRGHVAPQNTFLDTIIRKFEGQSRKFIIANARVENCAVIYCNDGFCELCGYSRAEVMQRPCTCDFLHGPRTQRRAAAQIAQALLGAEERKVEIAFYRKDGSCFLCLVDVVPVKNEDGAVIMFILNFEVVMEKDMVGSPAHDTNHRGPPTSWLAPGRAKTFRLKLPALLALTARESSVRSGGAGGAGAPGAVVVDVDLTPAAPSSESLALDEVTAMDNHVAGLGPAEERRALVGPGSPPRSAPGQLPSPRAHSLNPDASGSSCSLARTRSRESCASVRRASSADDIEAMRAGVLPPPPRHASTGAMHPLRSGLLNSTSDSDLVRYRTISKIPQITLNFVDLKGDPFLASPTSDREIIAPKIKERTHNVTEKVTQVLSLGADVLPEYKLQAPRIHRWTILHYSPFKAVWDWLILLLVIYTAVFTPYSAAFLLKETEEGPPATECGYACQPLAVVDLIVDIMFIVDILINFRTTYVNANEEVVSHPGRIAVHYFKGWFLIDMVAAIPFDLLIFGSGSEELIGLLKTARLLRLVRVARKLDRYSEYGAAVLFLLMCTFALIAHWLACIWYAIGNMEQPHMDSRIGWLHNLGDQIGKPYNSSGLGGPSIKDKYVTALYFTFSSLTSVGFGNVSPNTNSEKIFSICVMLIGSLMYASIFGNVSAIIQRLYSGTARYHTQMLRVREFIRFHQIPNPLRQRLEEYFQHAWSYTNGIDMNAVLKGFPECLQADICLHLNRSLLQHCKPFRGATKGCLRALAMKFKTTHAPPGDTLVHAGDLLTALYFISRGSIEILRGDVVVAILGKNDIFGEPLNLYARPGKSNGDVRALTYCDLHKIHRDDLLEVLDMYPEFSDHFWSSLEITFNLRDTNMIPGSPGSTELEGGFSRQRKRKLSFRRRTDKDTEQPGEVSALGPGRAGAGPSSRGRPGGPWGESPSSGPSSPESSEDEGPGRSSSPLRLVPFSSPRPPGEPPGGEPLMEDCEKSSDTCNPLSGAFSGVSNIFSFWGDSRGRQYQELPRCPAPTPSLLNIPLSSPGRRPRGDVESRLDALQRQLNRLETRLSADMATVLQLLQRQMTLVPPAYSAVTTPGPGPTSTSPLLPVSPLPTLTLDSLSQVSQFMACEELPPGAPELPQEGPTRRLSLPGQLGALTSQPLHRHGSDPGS
Source text: Inhibition of the hERG channel is undesirable. Checking for hERG blockage is an integral step in the drug discovery cycle. The presently disclosed method is well-suited for high-throughput measurements based on fluorescence polarization (FP) as implemented in the Predictor Assay by Invitrogen (Carlsbad, Calif.). This assay is based on the principle that a fluorescent tracer upon binding to the hERG channel will induce an increase in the FP signal that will diminish when an inhibitor displaces the interaction between the tracer and the hERG channel.
FP measurements for IPR-1 and IPR-69 were performed using an EnVision (PerkinElmer) plate reader at an excitation of 540 nm and emission at 573 nm. […] At the highest concentration of 25 μM, which is near its biological activity in tumor cells, 60% blockage is detected.

SMILES	Ki (uPAR; from concentration-dependent inhibition curves, read-out: inhibition constant, Ki) [µM]	IC50 (MDA-MB-231 cells) [µM]	hERG blockage (hERG channel; […] μM) [%]	IC50 (uPAR; Table 1, assay not stated) [µM]	Ki (uPAR; Table 1, assay not stated, read-out: Ki) [µM]	hERG channel blockage (hERG channel; 1, 10 and […] μM)
Cc1cc(C)cc(NC(=O)c2cnn(-c3ccc(C(C)C)cc3)c2C2CCNCC2)c1 [IPR-69, N-(3,5-dimethylphenyl)-1-(4-isopropylphenyl)-5-(piperidin-4-yl)-1H-pyrazole-4-carboxamide]	30	30	60			
CN(C)c1ccc(CNCCC(Cc2ccccc2)c2ccc3c(c2)OCO3)cc1 (racemic) [IPR-9, 4-(((3-(benzo[d][1,3]dioxol-5-yl)-4-phenylbutyl)amino)methyl)-N,Ndimethylaniline]		30		24.4	7.4	even greater hERG K^+ channel blockage than the well-known channel blocker E-4031
